Measurements as given in paper doi:10.1101/2024.09.25.615046, “Identification of SLC45A4 as a pain gene encoding a neuronal polyamine transporter” (bioRxiv, 2024).

What was measured:
SLC45A4 (HsSLC45A4) [1] = target: T1, SLC45A4 (HsSLC45A4) (Homo sapiens, UniProt Q5BKX6); test: competition of […]-spermidine uptake, Neuro-2A cells; assay type: cell-based; set-up: full-length; uptake: C-terminal FLAG tag, pLexM, overexpressed in mouse Neuro-2A cells; settings: 1 uM 14C-spermidine, pH 7.5, 37 °C; unreliable unit: printed mM is probably µM (lost symbol font)
T1 sequence (Q5BKX6 1-768): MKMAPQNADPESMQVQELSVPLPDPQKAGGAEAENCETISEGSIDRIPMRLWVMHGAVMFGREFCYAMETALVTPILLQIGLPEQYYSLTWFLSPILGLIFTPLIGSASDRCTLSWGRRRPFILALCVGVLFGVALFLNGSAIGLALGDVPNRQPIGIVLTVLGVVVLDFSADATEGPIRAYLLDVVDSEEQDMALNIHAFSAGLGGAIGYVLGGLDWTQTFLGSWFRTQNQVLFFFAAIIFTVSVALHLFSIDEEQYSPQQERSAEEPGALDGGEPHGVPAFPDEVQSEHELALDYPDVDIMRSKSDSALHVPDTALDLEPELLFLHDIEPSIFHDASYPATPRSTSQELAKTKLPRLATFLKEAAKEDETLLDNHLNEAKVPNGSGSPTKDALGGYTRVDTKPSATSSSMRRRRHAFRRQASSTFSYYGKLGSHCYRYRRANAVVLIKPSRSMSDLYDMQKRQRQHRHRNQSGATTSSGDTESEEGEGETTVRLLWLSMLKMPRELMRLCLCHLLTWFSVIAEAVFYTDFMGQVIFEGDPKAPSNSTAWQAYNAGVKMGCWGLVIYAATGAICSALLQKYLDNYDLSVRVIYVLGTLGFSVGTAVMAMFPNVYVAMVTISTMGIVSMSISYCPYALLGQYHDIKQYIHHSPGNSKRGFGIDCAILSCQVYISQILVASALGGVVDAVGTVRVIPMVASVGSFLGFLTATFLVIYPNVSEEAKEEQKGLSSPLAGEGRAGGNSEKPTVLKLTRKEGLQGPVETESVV

SLC45A4 (HsSLC45A4) [2] = target: T1, SLC45A4 (HsSLC45A4); test: nanoDSF thermal shift, purified protein; assay type: binding; set-up: full-length; uptake: C-terminal FLAG tag, pLexM, overexpressed in mouse Neuro-2A cells; nanoDSF: purified in DDM:CHS (eGFP-His tag removed by TEV); settings: 2.5-50 mM metabolite, DDM:CHS, 150 mM NaCl, 20 mM Tris or MES pH 7.5

Row | IC50 (SLC45A4 (HsSLC45A4) [1]) [mM] | SMILES | thermal stability (SLC45A4 (HsSLC45A4) [2])
1 | 74 | NCCCCN [Put] | –
2 | – | NCCCCNCCCN [Spd] | polyamines Spm and Spd eliciting the largest response
3 | 67 | NCCCCCN [Cad] | –
4 | – | NCCCNCCCCNCCCN [Spm] | polyamines Spm and Spd eliciting the largest response
